Results published in US9321747B2, “Acid addition salt of substituted pyridine compound” (DAIICHI SANKYO COMPANY, LIMITED, priority 2012, dated 2016).
Where a name gives a salt, the structure may show the parent alone.

Molecular target: recombinant human CETP protein (Homo sapiens (Human), UniProt P11597)
Test: Test of CETP inhibition activity (in vitro, buffer-based)
Type: biochemical
Conditions: [14C]-cholesteryl ester transfer from reconstituted HDL to acceptor lipoprotein, 37° C., 60 minutes, PBS buffer
Procedure: Test of CETP Inhibition Activity (In Vitro, Buffer-Based)
(1) Preparation of Reconstituted HDL
Cholesterol (1.125 μmol), phosphatidyl choline (4.5 μmol) and [^14C]-labeled cholesteryl ester (2.0 μCi; 40 μl) were taken in a glass test tube and well mixed with a vortex, and dried under a nitrogen gas current so that it formed a thin film. The obtained mixture was dissolved in ethanol (200 μl), which was designated as Solution A. A PBS solution [a mixed solution of Na2HPO4 (30 mM), KH2PO4 (8.8 mM), NaCl (60 mM) and EDTA (pH 7.4; 0.67 mM); 4 ml] was taken in a tube and the reaction solution was vigorously stirred with a vortex under a nitrogen current. The above-described Solution A was gently injected into this mixture with a syringe and the reaction solution was vigorously stirred with a vortex for 5 minutes under a nitrogen current. Sodium cholate (200 mM; 0.38 ml) was added to the obtained mixture and the reaction solution was stirred for 2 minutes. ApoA-I protein (3 mg) was added to the obtained mixture and the reaction solution was stirred for 2 minutes. The obtained mixture was adjusted to 5 ml with the PBS solution and then dialyzed with the PBS solution. The obtained mixture was designated as the reconstituted HDL.
(2) Preparation of Acceptor Lipoprotein
NaBr was added to the plasma of a healthy person and the density of the mixture was adjusted to 1.019, and the mixture was subjected to density gradient centrifugation (40000 rpm, for 16 hours) to remove the fraction having a density of less than 1.019. NaBr was added to the obtained mixture and the density of the solution was adjusted to 1.063, and the solution was subjected to density gradient centrifugation (40000 rpm, 18 hours) to provide the fraction consisting of IDL (intermediate density lipoprotein) and LDL (1.019<density<1.063). The obtained fraction was dialyzed with the PBS solution. The obtained mixture was designated as the acceptor lipoprotein.
(3) Measurement of CETP Inhibition Activity
A recombinant human CETP protein (manufactured by Roar Biomedical Inc.; 4.5 ng), the acceptor lipoprotein described in (2) above (32.5 μg) and 5,5′-dithio-bis-(2-nitrobenzoic acid) (7 mM, 15 μl) were taken in a 96 well plate and the total amount of the mixture was adjusted to 48.5 μl with the PBS solution. The test compound [DMSO solution (concentration: 0.15, 0.5, 1.5, 5, 15, 50, 150 and 500 μM); 1.5 μl] was added to each well and the mixture was incubated in a thermostatic bath at 37° C. for 60 minutes. The reconstituted HDL (50 μl) described in (1) above was added to each well and the mixture was reacted in a thermostatic bath at 37° C. for 60 minutes. The 96 well plate was moved onto ice and a precipitation reagent [a mixed solution of magnesium chloride (60 mM) and 0.1% dextran sulfate[1/1(v/v)]; 15 μl] was added to each well, and then the mixture was allowed to stand on ice for 15 minutes. The reaction solution (80 μl) in each well was moved to a filter plate and centrifuged at 1500 rpm for 1 minute, and the filtrate which passed through the filter was designated as the HDL fraction and the radioactivity thereof was measured with a scintillation counter. The percentage decrease in radioactivity in the case where the test compound was added in comparison with that in case where the test compound was not added was designated as the percentage CETP inhibition. The IC50 value was calculated from the percentage CETP inhibition.

Chain of recombinant human CETP protein (P11597 18-493): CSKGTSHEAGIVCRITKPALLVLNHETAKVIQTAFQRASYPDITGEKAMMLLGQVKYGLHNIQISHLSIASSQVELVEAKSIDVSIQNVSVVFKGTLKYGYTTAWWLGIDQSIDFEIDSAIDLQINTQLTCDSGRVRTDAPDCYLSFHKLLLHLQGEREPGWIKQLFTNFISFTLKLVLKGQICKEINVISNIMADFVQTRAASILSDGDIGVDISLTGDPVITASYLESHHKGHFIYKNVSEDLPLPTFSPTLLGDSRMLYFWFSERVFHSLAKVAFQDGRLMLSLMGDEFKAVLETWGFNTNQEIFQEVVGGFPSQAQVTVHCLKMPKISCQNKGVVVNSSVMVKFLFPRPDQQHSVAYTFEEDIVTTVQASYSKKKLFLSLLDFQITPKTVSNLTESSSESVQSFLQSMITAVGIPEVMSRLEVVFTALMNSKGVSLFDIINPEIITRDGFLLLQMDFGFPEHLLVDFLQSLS

SMILES	IC50 (dihydrochloride) [nM]	IC50 [nM]	other results
CC1(C)Cc2nc(C3CCN(c4ncc(OCC(CO)CO)cn4)CC3)c([C@@H](F)c3ccc(C(F)(F)F)cc3)c(C3CCC(F)(F)CC3)c2[C@@H](O)C1 [Example 1, (5S)-4-(4,4-Difluorocyclohexyl)-3-{(S)-fluoro[4-(trifluoromethyl)phenyl]methyl}-2-(1-{5-[3-hydroxy-2-(hydroxymethyl)propoxy]pyrimidin-2-yl}piperidin-4-yl)-7,7-dimethyl-5,6,7,8-tetrahydr oquinolin-5-ol dihydrochloride]	35.2	–	–
CC1(C)Cc2nc(C3CCN(c4ncc(OCC(CO)CO)cn4)CC3)c([C@@H](F)c3ccc(C(F)(F)F)cc3)c(C3CCC(F)(F)CC3)c2[C@@H](O)C1 [Example 2, (5S)-4-(4,4-Difluorocyclohexyl)-3-{(S)-fluoro[4-(trifluoromethyl)phenyl]methyl}-2-(1-{5-[3-hydroxy-2-(hydroxymethyl)propoxy]pyrimidin-2-yl}piperidin-4-yl)-7,7-dimethyl-5,6,7,8-tetrahydroquinolin-5-ol dihydrobromide]	–	30.8	–
CC1(C)Cc2nc(C3CCN(c4ncc(OCC(C)(CO)CO)cn4)CC3)c([C@@H](F)c3ccc(C(F)(F)F)cc3)c(C3CCC(F)(F)CC3)c2[C@@H](O)C1 [Example 3, (5S)-4-(4,4-Difluorocyclohexyl)-3-{(S)-fluoro[4-(trifluoromethyl)phenyl]methyl}-2-(1-{5-[3-hydroxy-2-(hydroxymethyl)-2-methylpropoxy]pyrimidin-2-yl}piperidin-4-yl)-7,7-dimethyl-5,6,7,8-tetrahydroquinolin-5-ol dihydrobromide]	–	–	IC50 (dihydrobromide): 39.3 nM
CC1(C)Cc2nc(C3CCN(c4ncc(OCC(C)(CO)CO)cn4)CC3)c([C@@H](F)c3ccc(C(F)(F)F)cc3)c(C3CCC(F)(F)CC3)c2[C@@H](O)C1 [Example 4, (5S)-4-(4,4-Difluorocyclohexyl)-3-{(S)-fluoro[4-(trifluoromethyl)phenyl]methyl}-2-(1-{5-[3-hydroxy-2-(hydroxymethyl)-2-methylpropoxy]pyrimidin-2-yl}piperidin-4-yl)-7,7-dimethyl-5,6,7,8-tetrahydroquinolin-5-ol dihydrochloride]	22.3	–	–
CC1(C)Cc2nc(C3CCN(c4ncc(OCC(C)(CO)CO)cn4)CC3)c([C@@H](F)c3ccc(C(F)(F)F)cc3)c(C3CCC(F)(F)CC3)c2[C@@H](O)C1 [Example 5, (5S)-4-(4,4-Difluorocyclohexyl)-3-{(S)-fluoro[4-(trifluoromethyl)phenyl]methyl}-2-(1-{5-[3-hydroxy-2-(hydroxymethyl)-2-methylpropoxy]pyrimidin-2-yl}piperidin-4-yl)-7,7-dimethyl-5,6,7,8-tetrahydroquinolin-5-ol methanesulfonate]	–	28.5	–
CC(C)(O)CCOc1cnc(N2CCC(c3nc4c(c(C5CCC(F)(F)CC5)c3[C@@H](F)c3ccc(C(F)(F)F)cc3)[C@@H](O)CC(C)(C)C4)CC2)nc1 [Example 8, (5S)-4-(4,4-Difluorocyclohexyl)-3-{(S)-fluoro[4-(trifluoromethyl)phenyl]methyl}-2-{1-[5-(3-hydroxy-3-methylbutoxy)pyrimidin-2-yl]piperidin-4-yl}-7,7-dimethyl-5,6,7,8-tetrahydroquinolin-5-ol disuccinate]	–	–	IC50 (disuccinate): 22.7 nM
CC(C)(O)CCOc1cnc(N2CCC(c3nc4c(c(C5CCC(F)(F)CC5)c3[C@@H](F)c3ccc(C(F)(F)F)cc3)[C@@H](O)CC(C)(C)C4)CC2)nc1 [Example 9, (5S)-4-(4,4-Difluorocyclohexyl)-3-{(S)-fluoro[4-(trifluoromethyl)phenyl]methyl}-2-{1-[5-(3-hydroxy-3-methylbutoxy)pyrimidin-2-yl]piperidin-4-yl}-7,7-dimethyl-5,6,7,8-tetrahydroquinolin-5-ol benzenesulfonate]	–	11.6	–
CC(C)(O)CCOc1cnc(N2CCC(c3nc4c(c(C5CCC(F)(F)CC5)c3[C@@H](F)c3ccc(C(F)(F)F)cc3)[C@@H](O)CC(C)(C)C4)CC2)nc1 [Example 10, (5S)-4-(4,4-Difluorocyclohexyl)-3-{(S)-fluoro[4-(trifluoromethyl)phenyl]methyl}-2-{1-[5-(3-hydroxy-3-methylbutoxy)pyrimidin-2-yl]piperidin-4-yl}-7,7-dimethyl-5,6,7,8-tetrahydroquinolin-5-ol maleate]	–	–	IC50 (maleate): 13 nM
CC(C)(O)CCOc1cnc(N2CCC(c3nc4c(c(C5CCC(F)(F)CC5)c3[C@@H](F)c3ccc(C(F)(F)F)cc3)[C@@H](O)CC(C)(C)C4)CC2)nc1 [Example 11, (5S)-4-(4,4-Difluorocyclohexyl)-3-{(S)-fluoro[4-(trifluoromethyl)phenyl]methyl}-2-{1-[5-(3-hydroxy-3-methylbutoxy)pyrimidin-2-yl]piperidin-4-yl}-7,7-dimethyl-5,6,7,8-tetrahydroquinolin-5-ol hemifumarate]	–	28.9	–
CC1(C)Cc2nc(C3CCN(c4ncc(OC[C@@H](O)CO)cn4)CC3)c([C@@H](F)c3ccc(C(F)(F)F)cc3)c(C3CCC(F)(F)CC3)c2[C@@H](O)C1 [Example 13, (5S)-4-(4,4-Difluorocyclohexyl)-2-[1-(5-{[(2S)-2,3-dihydroxypropyl]oxy}pyrimidin-2-yl)piperidin-4-yl]-3-{(S)-fluoro[4-(trifluoromethyl)phenyl]methyl}-7,7-dimethyl-5,6,7,8-tetrahydroquinolin-5-ol dihydrochloride]	58.4	–	–
CC1(C)Cc2nc(C3CCN(c4ncc(OC[C@@H](O)CO)cn4)CC3)c([C@@H](F)c3ccc(C(F)(F)F)cc3)c(C3CCC(F)(F)CC3)c2[C@@H](O)C1 [Example 14, (5S)-4-(4,4-Difluorocyclohexyl)-2-[1-(5-{[(2S)-2,3-dihydroxypropyl]oxy}pyrimidin-2-yl)piperidin-4-yl]-3-{(S)-fluoro[4-(trifluoromethyl)phenyl]methyl}-7,7-dimethyl-5,6,7,8-tetrahydroquinolin-5-ol dihydrobromide]	–	38.2	–
CC1(C)Cc2nc(C3CCN(c4ncc(OC[C@H](O)CO)cn4)CC3)c([C@@H](F)c3ccc(C(F)(F)F)cc3)c(C3CCC(F)(F)CC3)c2[C@@H](O)C1 [Example 15, (5S)-4-(4,4-Difluorocyclohexyl)-2-[1-(5-{[(2R)-2,3-dihydroxypropyl]oxy}pyrimidin-2-yl)piperidin-4-yl]-3-{(S)-fluoro[4-(trifluoromethyl)phenyl]methyl}-7,7-dimethyl-5,6,7,8-tetrahydroquinolin-5-ol dihydrochloride]	38	–	–
CC1(C)Cc2nc(C3CCN(c4ncc(OC[C@H](O)CO)cn4)CC3)c([C@@H](F)c3ccc(C(F)(F)F)cc3)c(C3CCC(F)(F)CC3)c2[C@@H](O)C1 [Example 16, (5S)-4-(4,4-Difluorocyclohexyl)-2-[1-(5-{[(2R)-2,3-dihydroxypropyl]oxy}pyrimidin-2-yl)piperidin-4-yl]-3-{(S)-fluoro[4-(trifluoromethyl)phenyl]methyl}-7,7-dimethyl-5,6,7,8-tetrahydroquinolin-5-ol dihydrobromide]	–	28.5	–
CC1(C)Cc2nc(C3CCN(c4ncc(OCCCS(C)(=O)=O)cn4)CC3)c([C@@H](F)c3ccc(C(F)(F)F)cc3)c(C3CCC(F)(F)CC3)c2[C@@H](O)C1 [Example 17, (5S)-4-(4,4-Difluorocyclohexyl)-3-{(S)-fluoro[4-(trifluoromethyl)phenyl]methyl}-7,7-dimethyl-2-(1-{5-[3-(methylsulfonyl)propoxy]pyrimidin-2-yl}piperidin-4-yl)-5,6,7,8-tetrahydroquinolin-5-ol dihydrochloride]	10	–	–
